Assay results as given in patent US20170226081A1, “GLUCOSE TRANSPORT INHIBITORS” (Bayer Pharma Aktiengesellschaft, priority 2014, published 2017).

target: T1, GLUT1 (Homo sapiens, UniProt P11166); assay: Indirect measurement of GLUT activity by quantification of intracellular ATP levels (glucose induced ATP increase); format: cell-based; details: DLD1 cells; 1 mM glucose, 1 uM Rotenone, 15 min; standardized to cytochalasin B IC50 values; read-out: IC50 regarding glucose induced ATP increase (GLUT1 inhibition)
T1 construct: endogenous in cells
T1 sequence (P11166 1-492): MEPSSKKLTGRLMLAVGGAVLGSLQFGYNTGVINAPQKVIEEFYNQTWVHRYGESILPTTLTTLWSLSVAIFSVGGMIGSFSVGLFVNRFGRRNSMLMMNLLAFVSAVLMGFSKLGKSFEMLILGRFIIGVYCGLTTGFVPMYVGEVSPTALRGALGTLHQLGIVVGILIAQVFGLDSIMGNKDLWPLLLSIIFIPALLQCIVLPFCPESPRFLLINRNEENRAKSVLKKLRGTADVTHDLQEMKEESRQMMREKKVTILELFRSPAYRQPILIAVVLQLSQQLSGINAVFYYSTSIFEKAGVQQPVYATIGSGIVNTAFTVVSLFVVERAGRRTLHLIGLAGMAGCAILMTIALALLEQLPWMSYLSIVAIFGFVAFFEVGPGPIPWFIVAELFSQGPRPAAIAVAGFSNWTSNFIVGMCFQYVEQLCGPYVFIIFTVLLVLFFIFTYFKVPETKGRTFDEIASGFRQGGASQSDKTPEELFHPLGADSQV
Description: It is well known that a combination of small-molecule inhibitors of mitochondrial electron transport chain and glucose catabolism synergistically suppress ATP production and impair cellular viability (Ulanovskaya et al., 2008, 2011; Liu, et al. 2001). We therefore used DLD1 or CHO-K1 cells in combination with an oxidative phosphorylation inhibitor to identify GLUT inhibitors. Cell lines were maintained in DMEM medium supplemented with 10% FCS and 1% Penicillin-Streptomycin solution and 2% Glutamax. The cells were treated with trypsin and seeded into 384 plates at a density of 4000 cells/well. The cells were then cultured overnight in glucose free media containing 1% FCS to reduce intracellular ATP levels. After 24 h the cells were incubated at 37° C. containing the appropriate glucose or in case of GLUT2 fructose concentration (1 mM and 30 mM respectively) with or without compounds and 1 uM Rotenone for 15 min. The CellTiter-Glo® Luminescent Cell Viability Assay from Promega was then used to measure ATP levels. Compounds able to reduce the ATP Levels within 15 min of glucose application were considered to be glucose uptake inhibitors.

Row | IC50 | Compound
1 | 275 nM | Cc1nc(Cn2cc(NC(=O)c3cc(C(F)(F)F)nc4ccc(Br)cc34)c(C)n2)cs1 [Example 70, 6-bromo-N-{3-methyl-1-[(2-methyl-1,3-thiazol-4-yl)methyl]-1H-pyrazol-4-yl}-2-(trifluoromethyl)quinoline-4-carboxamide]
2 | 391 nM | CCc1noc(Cn2cc(NC(=O)c3cc(C(F)(F)F)nc4ccc(Br)cc34)c(C)n2)n1 [Example 64, 6-bromo-N-{1-[(3-ethyl-1,2,4-oxadiazol-5-yl)methyl]-3-methyl-1H-pyrazol-4-yl}-2-(trifluoromethyl)quinoline-4-carboxamide]
3 | 2040 nM | O=C(Nc1cn(Cc2ccc(F)cc2)nc1C(F)(F)F)c1cc(C(F)(F)F)nc2cc(F)c(F)cc12 [Example 34, 6,7-difluoro-N-[1-(4-fluorobenzyl)-3-(trifluoromethyl)-1H-pyrazol-4-yl]-2-(trifluoromethyl)quinoline-4-carboxamide]
4 | 190 nM | Cc1nn(Cc2ccn(C)n2)cc1NC(=O)c1cc(C(N)=O)nc2ccccc12 [Example 63, N^4-{3-methyl-1-[(1-methyl-1H-pyrazol-3-yl)methyl]-1H-pyrazol-4-yl}quinoline-2,4-dicarboxamide]
5 | 32 nM | CC(c1ccc(C#N)cc1)n1cc(NC(=O)c2cc(C(N)=O)nc3ccccc23)c(C(F)(F)F)n1 (racemic) [Example 40, (±)—N^4-{1-[1-(4-cyanophenyl)ethyl]-3-(trifluoromethyl)-1H-pyrazol-4-yl}quinoline-2,4-dicarboxamide]
6 | 116 nM | COc1cc(C(=O)Nc2cn(Cc3ccccc3C#N)nc2C)c2ccccc2n1 [Example 15, N-[1-(2-cyanobenzyl)-3-methyl-1H-pyrazol-4-yl]-2-methoxyquinoline-4-carboxamide]
7 | 21 nM | Cc1nn(Cc2ccc(C#N)cc2)cc1NC(=O)c1cc(C(F)(F)F)nc2ccc(Br)cc12 [Example 8, 6-bromo-N-[1-(4-cyanobenzyl)-3-methyl-1H-pyrazol-4-yl]-2-(trifluoromethyl)quinoline-4-carboxamide]
8 | 2000 nM | O=C(NCCO)c1nn(Cc2ccc(F)cc2)cc1NC(=O)c1cc(C(F)(F)F)nc2ccc(Br)cc12 [Example 20, 6-bromo-N-{1-(4-fluorobenzyl)-3-[(2-hydroxyethyl)carbamoyl]-1H-pyrazol-4-yl}-2-(trifluoromethyl)quinoline-4-carboxamide]
9 | 21 nM | COc1ccc(Cn2cc(NC(=O)c3cc(OC)nc4ccccc34)c(C)n2)cc1 [Example 11, 2-methoxy-N-[1-(4-methoxybenzyl)-3-methyl-1H-pyrazol-4-yl]quinoline-4-carboxamide]
10 | 6.5 nM | O=C(O)c1nn(Cc2ccc(F)cc2)cc1NC(=O)c1cc(C(F)(F)F)nc2ccc(Br)cc12 [Example 18, 4-({[6-bromo-2-(trifluoromethyl)quinolin-4-yl]carbonyl}amino)-1-(4-fluorobenzyl)-1H-pyrazole-3-carboxylic acid]
11 | 64 nM | COC(=O)c1nn(Cc2ccc(F)cc2)cc1NC(=O)c1cc(C(F)(F)F)nc2ccc(Br)cc12 [Example 17, methyl 4-({[6-bromo-2-(trifluoromethyl)quinolin-4-yl]carbonyl}amino)-1-(4-fluorobenzyl)-1H-pyrazole-3-carboxylate]
12 | 556 nM | Cc1nn(CC2CCCCC2)cc1NC(=O)c1cc(C(N)=O)nc2ccccc12 [Example 57, N^4-[1-(cyclohexylmethyl)-3-methyl-1H-pyrazol-4-yl]quinoline-2,4-dicarboxamide]
13 | 61 nM | CS(=O)(=O)c1ccc(Cn2cc(NC(=O)c3cc(C(N)=O)nc4ccccc34)c(C(F)(F)F)n2)cc1 [Example 42, N^4-{1-[4-(methylsulfonyl)benzyl]-3-(trifluoromethyl)-1H-pyrazol-4-yl}quinoline-2,4-dicarboxamide]
14 | 702 nM | Cc1nn(Cc2ccncc2)cc1NC(=O)c1cc(C(N)=O)nc2ccccc12 [Example 58, N^4-[3-methyl-1-(pyridin-4-ylmethyl)-1H-pyrazol-4-yl]quinoline-2,4-dicarboxamide]
15 | 301 nM | CNC(=O)c1nc(Cn2cc(NC(=O)c3cc(C(N)=O)nc4ccccc34)c(C)n2)no1 [Example 65, N^4-(3-methyl-1-{[5-(methylcarbamoyl)-1,2,4-oxadiazol-3-yl]methyl}-1H-pyrazol-4-yl)quinoline-2,4-dicarboxamide]
16 | 150 nM | COc1cc(C(=O)Nc2cn(Cc3ccc(F)cc3)nc2C)c2ccccc2n1 [Example 3, N-[1-(4-fluorobenzyl)-3-methyl-1H-pyrazol-4-yl]-2-methoxyquinoline-4-carboxamide]
17 | 23 nM | CCc1nn(Cc2ccc(C#N)cc2)cc1NC(=O)c1cc(C(N)=O)nc2ccccc12 [Example 60, N^4-[1-(4-cyanobenzyl)-3-ethyl-1H-pyrazol-4-yl]quinoline-2,4-dicarboxamide]
18 | 4.7 nM | COc1ccc(Cn2cc(NC(=O)c3cc(C(N)=O)nc4cc(F)c(Cl)cc34)c(C(F)(F)F)n2)cc1 [Example 46, 6-chloro-7-fluoro-N^4-[1-(4-methoxybenzyl)-3-(trifluoromethyl)-1H-pyrazol-4-yl]quinoline-2,4-dicarboxamide]
19 | 2.3 nM | COc1ccc(Cn2cc(NC(=O)c3cc(C(N)=O)nc4ccccc34)c(C)n2)cc1 [Example 13, N^4-[1-(4-methoxybenzyl)-3-methyl-1H-pyrazol-4-yl]quinoline-2,4-dicarboxamide]
20 | 4.4 nM | N#Cc1ccc(Cn2cc(NC(=O)c3cc(C(N)=O)nc4cc(F)c(Cl)cc34)c(C(F)(F)F)n2)cc1 [Example 35, 6-chloro-N^4-[1-(4-cyanobenzyl)-3-(trifluoromethyl)-1H-pyrazol-4-yl]-7-fluoroquinoline-2,4-dicarboxamide]
21 | 4 nM | Cc1nn(Cc2ccc(C#N)cc2)cc1NC(=O)c1cc(C(N)=O)nc2cc(F)c(Cl)cc12 [Example 53, 6-chloro-N^4-[1-(4-cyanobenzyl)-3-methyl-1H-pyrazol-4-yl]-7-fluoroquinoline-2,4-dicarboxamide]
22 | 193 nM | Cc1nn(Cc2cccc(F)c2)cc1NC(=O)c1cc(C(N)=O)nc2ccccc12 [Example 56, N^4-[1-(3-fluorobenzyl)-3-methyl-1H-pyrazol-4-yl]quinoline-2,4-dicarboxamide]
23 | 172 nM | Cc1nn(Cc2ccn(C)n2)cc1NC(=O)c1cc(C(F)(F)F)nc2ccc(Br)cc12 [Example 73, 6-bromo-N-{3-methyl-1-[(1-methyl-1H-pyrazol-3-yl)methyl]-1H-pyrazol-4-yl}-2-(trifluoromethyl)quinoline-4-carboxamide]
24 | 183 nM | Cc1ccc2nc(C)cc(C(=O)Nc3cn(Cc4ccc(F)cc4)nc3C(F)(F)F)c2c1 [Example 33, N-[1-(4-fluorobenzyl)-3-(trifluoromethyl)-1H-pyrazol-4-yl]-2,6-dimethylquinoline-4-carboxamide]
25 | 4.1 nM | COc1ccc(Cn2cc(NC(=O)c3cc(C(N)=O)nc4ccccc34)c(C(F)(F)F)n2)cc1 [Example 49, N^4-[1-(4-methoxybenzyl)-3-(trifluoromethyl)-1H-pyrazol-4-yl]quinoline-2,4-dicarboxamide]
26 | 763 nM | O=C(Nc1cn(Cc2ccc(F)cc2)nc1C(F)(F)F)c1cc(C(F)(F)F)nc2c(Cl)cc(Cl)cc12 [Example 32, 6,8-dichloro-N-[1-(4-fluorobenzyl)-3-(trifluoromethyl)-1H-pyrazol-4-yl]-2-(trifluoromethyl)quinoline-4-carboxamide]
27 | 1180 nM | O=C(Nc1cn(Cc2ccc(F)cc2)nc1C(F)(F)F)c1cc(C(F)(F)F)nc2ccc(Br)cc12 [Example 31, 6-bromo-N-[1-(4-fluorobenzyl)-3-(trifluoromethyl)-1H-pyrazol-4-yl]-2-(trifluoromethyl)quinoline-4-carboxamide]
28 | 11 nM | CS(=O)(=O)c1ccc(Cn2cc(NC(=O)c3cc(C(N)=O)nc4cc(F)c(Cl)cc34)c(C(F)(F)F)n2)cc1 [Example 44, 6-chloro-7-fluoro-N^4-{1-[4-(methylsulfonyl)benzyl]-3-(trifluoromethyl)-1H-pyrazol-4-yl}quinoline-2,4-dicarboxamide]
29 | 1150 nM | NC(=O)c1nn(Cc2ccc(F)cc2)cc1NC(=O)c1cc(C(F)(F)F)nc2ccc(Br)cc12 [Example 21, 6-bromo-N-[3-carbamoyl-1-(4-fluorobenzyl)-1H-pyrazol-4-yl]-2-(trifluoromethyl)quinoline-4-carboxamide]
30 | 120 nM | CC(C)c1nn(Cc2ccc(C#N)cc2)cc1NC(=O)c1cc(C(N)=O)nc2cc(F)ccc12 [Example 62, N^4-[1-(4-cyanobenzyl)-3-isopropyl-1H-pyrazol-4-yl]-7-fluoroquinoline-2,4-dicarboxamide]
